From ChEMBL document CHEMBL5705887, “Distinct concentration-dependent effects of the polo-like kinase 1-specific inhibitor GSK461364A, including differential effect on apoptosis” (Cancer Res, 2009)

Experiments:
[1] = target: Vascular endothelial growth factor receptor 3 (Homo sapiens) (UniProt P35916); assay: Inhibition of N-terminal GST-tagged recombinant human FLT4 (800 to end residues) at 10 uM relative to control
[2] = target: NUAK family SNF1-like kinase 1 (Homo sapiens) (UniProt O60285); assay: Inhibition of full length N-terminal his6-tagged recombinant human ARK5 (2 to end residues) expressed in baculovirus Sf21 cells at 10 uM relative to control
[3] = target: Platelet-derived growth factor receptor alpha (Homo sapiens) (UniProt P16234); assay: Inhibition of N-terminal his6-tagged recombinant human PDGFRalpha (550 to end residues) expressed in baculovirus Sf21 insect cells at 10 uM relative to control
[4] = target: Testis-specific serine/threonine-protein kinase 1 (Homo sapiens) (UniProt Q9BXA7); assay: Inhibition of full length his6-tagged recombinant human TSSK1 expressed in baculovirus Sf21 insect cells at 10 uM relative to control
[5] = system: OVCAR-8; assay: Antiproliferative activity against human OVCAR-8 cells assessed as growth inhibition incubated for 72 hrs by celltiter-glo assay; assay type: functional
[6] = system: K562; assay: Antiproliferative activity against human K562 cells assessed as growth inhibition incubated for 72 hrs by celltiter-glo assay; assay type: functional
[7] = system: NCI-H157; assay: Antiproliferative activity against human NCI-H157 cells assessed as growth inhibition incubated for 72 hrs by celltiter-glo assay; assay type: functional
[8] = system: ASPC1; assay: Antiproliferative activity against human ASPC1 cells assessed as growth inhibition incubated for 72 hrs by celltiter-glo assay; assay type: functional
[9] = system: ZR-75-1; assay: Antiproliferative activity against human ZR-75-1 cells assessed as growth inhibition incubated for 72 hrs by celltiter-glo assay; assay type: functional
[10] = system: MX1; assay: Antiproliferative activity against human MX1 cells assessed as growth inhibition incubated for 72 hrs by celltiter-glo assay; assay type: functional
[11] = system: OVCAR-4; assay: Antiproliferative activity against human OVCAR-4 cells assessed as growth inhibition incubated for 72 hrs by celltiter-glo assay; assay type: functional
[12] = system: U2OS; assay: Antiproliferative activity against human U2OS cells assessed as growth inhibition incubated for 72 hrs by celltiter-glo assay; assay type: functional
[13] = system: RKO; assay: Antiproliferative activity against human RKO cells assessed as growth inhibition incubated for 72 hrs by celltiter-glo assay; assay type: functional
[14] = system: H322; assay: Antiproliferative activity against human H322 cells assessed as growth inhibition incubated for 72 hrs by celltiter-glo assay; assay type: functional; conditions: NCI-H322
[15] = system: COLO 205; assay: Antitumor activity against human COLO 205 cells xenografted in Nude mouse assessed as tumor growth delay time at 50 mg/kg, ip administered for 12 days; assay type: functional; conditions: time 12 day
[16] = Antiproliferative activity against human A375P cells assessed as of viable cell signal at minimum maximum cell growth incubated for 72 hrs by celltiter-glo assay relative to control; assay type: functional
[17] = system: BT-474; assay: Antiproliferative activity against human BT-474 cells assessed as of viable cell signal at minimum maximum cell growth incubated for 72 hrs by celltiter-glo assay relative to control; assay type: functional
[18] = system: BXPC-3; assay: Antiproliferative activity against human BXPC-3 cells assessed as of viable cell signal at minimum maximum cell growth incubated for 72 hrs by celltiter-glo assay relative to control; assay type: functional
[19] = system: DU-145; assay: Antiproliferative activity against human DU-145 cells assessed as of viable cell signal at minimum maximum cell growth incubated for 72 hrs by celltiter-glo assay relative to control; assay type: functional
[20] = system: NCI-H157; assay: Antiproliferative activity against human NCI-H157 cells assessed as of viable cell signal at minimum maximum cell growth incubated for 72 hrs by celltiter-glo assay relative to control; assay type: functional
[21] = system: HeLa; assay: Antiproliferative activity against human HeLa cells assessed as of viable cell signal at minimum maximum cell growth incubated for 72 hrs by celltiter-glo assay relative to control; assay type: functional
[22] = system: HL-60; assay: Antiproliferative activity against human HL-60 cells assessed as of viable cell signal at minimum maximum cell growth incubated for 72 hrs by celltiter-glo assay relative to control; assay type: functional
[23] = system: HN5; assay: Antiproliferative activity against human HN5 cells assessed as of viable cell signal at minimum maximum cell growth incubated for 72 hrs by celltiter-glo assay relative to control; assay type: functional
[24] = system: HT-29; assay: Antiproliferative activity against human HT-29 cells assessed as of viable cell signal at minimum maximum cell growth incubated for 72 hrs by celltiter-glo assay relative to control; assay type: functional
[25] = system: MX1; assay: Antiproliferative activity against human MX1 cells assessed as of viable cell signal at minimum maximum cell growth incubated for 72 hrs by celltiter-glo assay relative to control; assay type: functional
[26] = system: NCI-H460; assay: Antiproliferative activity against human NCI-H460 cells assessed as of viable cell signal at minimum maximum cell growth incubated for 72 hrs by celltiter-glo assay relative to control; assay type: functional
[27] = system: SK-BR-3; assay: Antiproliferative activity against human SK-BR-3 cells assessed as of viable cell signal at minimum maximum cell growth incubated for 72 hrs by celltiter-glo assay relative to control; assay type: functional
[28] = system: SK-MEL-28; assay: Antiproliferative activity against human SK-MEL-28 cells assessed as of viable cell signal at minimum maximum cell growth incubated for 72 hrs by celltiter-glo assay relative to control; assay type: functional
[29] = system: SK-MEL3; assay: Antiproliferative activity against human SK-MEL3 cells assessed as of viable cell signal at minimum maximum cell growth incubated for 72 hrs by celltiter-glo assay relative to control; assay type: functional
[30] = system: A2780; assay: Antiproliferative activity against human A2780 cells assessed as viable cell signal at maximum growth inhibition incubated for 72 hrs by celltiter-glo assay relative to control; assay type: functional
[31] = system: A-431; assay: Antiproliferative activity against human A-431 cells assessed as viable cell signal at maximum growth inhibition incubated for 72 hrs by celltiter-glo assay relative to control; assay type: functional
[32] = system: A549; assay: Antiproliferative activity against human A549 cells assessed as viable cell signal at maximum growth inhibition incubated for 72 hrs by celltiter-glo assay relative to control; assay type: functional
[33] = system: BXPC-3; assay: Antiproliferative activity against human BXPC-3 cells assessed as viable cell signal at maximum growth inhibition incubated for 72 hrs by celltiter-glo assay relative to control; assay type: functional
[34] = system: HCC1937; assay: Antiproliferative activity against human HCC1937 cells assessed as viable cell signal at maximum growth inhibition incubated for 72 hrs by celltiter-glo assay relative to control; assay type: functional
[35] = system: HCT-116; assay: Antiproliferative activity against human HCT-116 cells assessed as viable cell signal at maximum growth inhibition incubated for 72 hrs by celltiter-glo assay relative to control; assay type: functional
[36] = system: LNCaP; assay: Antiproliferative activity against human LNCaP cells assessed as viable cell signal at maximum growth inhibition incubated for 72 hrs by celltiter-glo assay relative to control; assay type: functional
[37] = system: MDA-MB-468; assay: Antiproliferative activity against human MDA-MB-468 cells assessed as viable cell signal at maximum growth inhibition incubated for 72 hrs by celltiter-glo assay relative to control; assay type: functional
[38] = system: SCLC; assay: Antiproliferative activity against human SCLC cells assessed as viable cell signal at maximum growth inhibition incubated for 72 hrs by celltiter-glo assay relative to control; assay type: functional
[39] = system: SK-OV-3; assay: Antiproliferative activity against human SK-OV-3 cells assessed as viable cell signal at maximum growth inhibition incubated for 72 hrs by celltiter-glo assay relative to control; assay type: functional
[40] = system: SW480; assay: Antiproliferative activity against human SW480 cells assessed as viable cell signal at maximum growth inhibition incubated for 72 hrs by celltiter-glo assay relative to control; assay type: functional

Chain of Testis-specific serine/threonine-protein kinase 1 (Homo sapiens) (Q9BXA7 whole entry): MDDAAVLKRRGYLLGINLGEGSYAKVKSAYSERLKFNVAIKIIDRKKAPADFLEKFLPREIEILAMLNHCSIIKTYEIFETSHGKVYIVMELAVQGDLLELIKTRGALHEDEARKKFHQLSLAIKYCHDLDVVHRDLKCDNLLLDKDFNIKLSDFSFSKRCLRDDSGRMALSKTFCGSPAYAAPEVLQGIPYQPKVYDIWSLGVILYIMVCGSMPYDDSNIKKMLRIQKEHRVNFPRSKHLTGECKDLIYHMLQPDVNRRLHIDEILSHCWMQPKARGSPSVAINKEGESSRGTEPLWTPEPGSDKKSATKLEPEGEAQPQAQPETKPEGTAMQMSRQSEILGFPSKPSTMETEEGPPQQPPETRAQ
Chain of Vascular endothelial growth factor receptor 3 (Homo sapiens) (P35916 whole entry): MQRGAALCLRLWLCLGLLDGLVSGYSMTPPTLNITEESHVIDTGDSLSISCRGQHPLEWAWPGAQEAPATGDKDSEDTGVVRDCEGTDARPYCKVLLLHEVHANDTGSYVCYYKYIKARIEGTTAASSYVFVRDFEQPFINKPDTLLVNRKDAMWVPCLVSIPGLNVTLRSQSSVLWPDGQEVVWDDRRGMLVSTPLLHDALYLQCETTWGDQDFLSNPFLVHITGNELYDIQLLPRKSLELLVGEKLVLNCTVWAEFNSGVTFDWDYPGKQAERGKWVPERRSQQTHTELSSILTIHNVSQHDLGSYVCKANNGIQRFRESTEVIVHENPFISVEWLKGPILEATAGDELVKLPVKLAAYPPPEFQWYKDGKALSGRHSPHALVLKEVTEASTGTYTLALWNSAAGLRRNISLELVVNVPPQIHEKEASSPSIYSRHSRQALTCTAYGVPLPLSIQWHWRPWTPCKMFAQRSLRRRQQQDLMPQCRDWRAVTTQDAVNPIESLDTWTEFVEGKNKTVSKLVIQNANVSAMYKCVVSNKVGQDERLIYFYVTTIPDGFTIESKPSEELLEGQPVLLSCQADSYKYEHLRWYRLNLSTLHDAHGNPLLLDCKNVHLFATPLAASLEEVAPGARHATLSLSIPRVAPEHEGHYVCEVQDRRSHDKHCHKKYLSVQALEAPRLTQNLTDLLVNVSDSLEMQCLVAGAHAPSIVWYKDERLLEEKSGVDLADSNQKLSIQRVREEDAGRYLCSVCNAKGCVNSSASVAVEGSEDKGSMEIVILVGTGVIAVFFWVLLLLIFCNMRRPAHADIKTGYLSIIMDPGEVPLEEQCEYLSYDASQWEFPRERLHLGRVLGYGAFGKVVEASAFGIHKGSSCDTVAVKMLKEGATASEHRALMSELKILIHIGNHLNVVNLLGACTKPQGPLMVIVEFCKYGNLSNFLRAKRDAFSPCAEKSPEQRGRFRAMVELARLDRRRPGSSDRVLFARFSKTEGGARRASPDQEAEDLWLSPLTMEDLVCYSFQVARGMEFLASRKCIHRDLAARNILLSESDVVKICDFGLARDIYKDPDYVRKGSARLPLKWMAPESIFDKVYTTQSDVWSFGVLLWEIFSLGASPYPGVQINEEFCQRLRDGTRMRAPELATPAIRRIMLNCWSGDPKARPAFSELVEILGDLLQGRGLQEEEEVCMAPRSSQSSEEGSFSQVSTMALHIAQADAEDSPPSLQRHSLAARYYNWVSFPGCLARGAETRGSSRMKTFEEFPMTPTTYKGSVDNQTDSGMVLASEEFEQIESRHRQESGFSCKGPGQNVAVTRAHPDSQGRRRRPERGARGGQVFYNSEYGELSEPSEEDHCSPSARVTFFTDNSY
Chain of Platelet-derived growth factor receptor alpha (Homo sapiens) (P16234 whole entry): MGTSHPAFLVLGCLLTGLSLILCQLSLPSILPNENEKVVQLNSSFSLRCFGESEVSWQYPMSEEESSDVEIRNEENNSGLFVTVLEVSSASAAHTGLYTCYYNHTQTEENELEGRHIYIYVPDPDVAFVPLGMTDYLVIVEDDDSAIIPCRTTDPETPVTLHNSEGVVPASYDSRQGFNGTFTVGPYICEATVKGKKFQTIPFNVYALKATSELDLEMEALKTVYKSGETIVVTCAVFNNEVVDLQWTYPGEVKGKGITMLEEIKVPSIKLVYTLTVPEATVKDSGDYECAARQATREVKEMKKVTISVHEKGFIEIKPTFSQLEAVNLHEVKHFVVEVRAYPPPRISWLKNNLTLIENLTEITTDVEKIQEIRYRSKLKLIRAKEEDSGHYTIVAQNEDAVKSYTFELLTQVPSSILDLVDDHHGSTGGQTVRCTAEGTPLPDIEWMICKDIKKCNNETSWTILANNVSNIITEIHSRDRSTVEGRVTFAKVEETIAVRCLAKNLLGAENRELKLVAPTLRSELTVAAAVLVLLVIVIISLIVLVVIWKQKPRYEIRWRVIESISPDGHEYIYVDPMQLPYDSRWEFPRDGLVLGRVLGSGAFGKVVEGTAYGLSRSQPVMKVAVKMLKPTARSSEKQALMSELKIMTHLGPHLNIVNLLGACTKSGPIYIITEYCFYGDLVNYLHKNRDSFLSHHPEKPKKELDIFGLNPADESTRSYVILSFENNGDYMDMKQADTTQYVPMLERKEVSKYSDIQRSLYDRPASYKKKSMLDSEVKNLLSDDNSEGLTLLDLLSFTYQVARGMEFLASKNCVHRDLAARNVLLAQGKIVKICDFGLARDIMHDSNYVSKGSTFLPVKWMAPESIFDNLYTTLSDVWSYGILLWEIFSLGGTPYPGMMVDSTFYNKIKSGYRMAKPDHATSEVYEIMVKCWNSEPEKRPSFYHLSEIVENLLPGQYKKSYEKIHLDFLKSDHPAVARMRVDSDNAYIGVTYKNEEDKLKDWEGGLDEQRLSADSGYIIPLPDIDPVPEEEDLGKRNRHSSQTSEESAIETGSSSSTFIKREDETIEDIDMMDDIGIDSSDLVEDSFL
Chain of NUAK family SNF1-like kinase 1 (Homo sapiens) (O60285 whole entry): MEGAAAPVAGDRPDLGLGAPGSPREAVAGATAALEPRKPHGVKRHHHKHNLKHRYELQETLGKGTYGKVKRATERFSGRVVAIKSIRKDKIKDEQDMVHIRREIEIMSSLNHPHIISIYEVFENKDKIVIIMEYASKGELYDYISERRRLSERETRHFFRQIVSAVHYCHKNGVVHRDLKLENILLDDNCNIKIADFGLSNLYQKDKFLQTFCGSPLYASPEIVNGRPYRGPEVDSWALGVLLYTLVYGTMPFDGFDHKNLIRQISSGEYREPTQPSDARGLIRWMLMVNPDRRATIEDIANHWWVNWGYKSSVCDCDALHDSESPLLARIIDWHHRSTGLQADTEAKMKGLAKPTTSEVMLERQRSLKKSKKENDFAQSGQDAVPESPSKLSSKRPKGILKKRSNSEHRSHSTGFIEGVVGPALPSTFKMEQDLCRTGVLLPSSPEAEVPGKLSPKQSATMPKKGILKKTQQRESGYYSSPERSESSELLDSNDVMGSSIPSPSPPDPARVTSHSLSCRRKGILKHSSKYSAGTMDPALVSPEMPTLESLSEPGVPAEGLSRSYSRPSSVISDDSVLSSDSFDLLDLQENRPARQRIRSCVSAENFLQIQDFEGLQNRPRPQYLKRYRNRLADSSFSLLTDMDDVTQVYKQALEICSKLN

Compound `C[C@@H](Oc1cc(-n2cnc3ccc(CN4CCN(C)CC4)cc32)sc1C(N)=O)c1ccccc1C(F)(F)F` [GSK-461364] has an inhibition [1] of 87%, an inhibition [2] of 79% and an inhibition [3] of 72%. The inhibition [4] was 61%, the GI50 [5] was 20.4 nM and the GI50 [6] was 19.4 nM. It also gave a GI50 [7] of 25.2 nM, a GI50 [8] of 22.3 nM and a GI50 [9] of 46.5 nM. It also gave a GI50 [10] of 12.1 nM, a GI50 [11] of 24.2 nM and a GI50 [12] of 41.7 nM. It also gave a GI50 [13] of 62.9 nM, a GI50 [14] of 20.2 nM and a Time [15] of 62 days. It also gave an Emin [16] of 220.5%, an Emin [17] of 217% and an Emin [18] of 103.3%. For the same compound, the Emin [19] was 69.1%, the Emin [20] was 95.3% and the Emin [21] was 32.2%. For the same compound, the Emin [22] was 15.3%, the Emin [23] was 39.8% and the Emin [24] was 327.7%. For the same compound, the Emin [25] was 161.5%, the Emin [26] was 94.6% and the Emin [27] was 54.6%. It also gave an Emin [28] of 199.6%, an Emin [29] of 112.5% and an Emax [30] of 977%. For the same compound, the Emax [31] was 820%, the Emax [32] was 632% and the Emax [33] was 278%. The Emax [34] was 240%, the Emax [35] was 545% and the Emax [36] was 470%. The Emax [37] was 458%, the Emax [38] was 834% and the Emax [39] was 345%. The Emax [40] was 512%.
